{
  "source": "patent US20240208984A1",
  "about": "“BIVALENT LIGANDS TO UNDERSTAND DIMERIZATION OF THE MU OPIOID RECEPTOR AND THE CHEMOKINE RECEPTOR CCR5 IN NEUROLOGICAL DISORDERS” (priority 2021, published 2024)",
  "key": {"mouse mu opioid receptor": {"molecular_target": "mouse mu opioid receptor (Mus musculus (Mouse), UniProt P42866)", "sequence (P42866 whole entry, looked up)": "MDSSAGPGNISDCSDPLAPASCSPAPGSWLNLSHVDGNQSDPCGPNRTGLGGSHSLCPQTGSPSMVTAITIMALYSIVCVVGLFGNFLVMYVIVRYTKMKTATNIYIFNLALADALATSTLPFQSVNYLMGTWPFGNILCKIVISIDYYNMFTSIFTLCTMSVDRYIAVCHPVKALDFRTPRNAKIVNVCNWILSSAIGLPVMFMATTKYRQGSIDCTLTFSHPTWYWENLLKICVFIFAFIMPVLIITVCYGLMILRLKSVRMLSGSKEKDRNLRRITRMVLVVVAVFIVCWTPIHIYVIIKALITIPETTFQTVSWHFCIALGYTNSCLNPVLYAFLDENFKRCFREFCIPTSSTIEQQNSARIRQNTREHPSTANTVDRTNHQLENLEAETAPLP", "experiment": "Calcium mobilization assay in mMOR-CHO cells", "format": "cell-based", "description": "Calcium mobilization assay results in mMOR-CHO cells. The pharmacological profiles of the three newly prepared MOR bivalent ligands were further characterized for their effects on MOR-dependent intracellular Ca^2+ signaling in an mMOR-CHO cell line that was transfected with chimeric Gqi5 protein as previously described.\nA CHO cell line stably expressing the mouse mu opioid receptor (mMOR-CHO) was used for this assay. The cells were transfected with Gαqi5 for 4 h and then plated (10,000 cells/well) to black 96-well plates with clear bottoms (Greiner Bio-One). After 24 h of incubation, the culture medium was removed, and the cells were washed with assay buffer (50 mL of HBSS, 1 mL of HEPES, 250 μL of probenecid, 50 μL of 1 mM CaCl2, and 50 μL of 1 mM MgCl2). The tested compounds were dissolved in DMSO as a stock solution for the assay (1 M). For agonist assays, cells were then incubated with 50 μL/well loading buffer (6 mL of assay buffer, 24 μL of Fluo4-AM solution (Invitrogen), and 12 μL of probenecid solution) for 60 min. Following incubation, different concentrations of the tested compounds were added by a FlexStation3 microplate reader (Molecular Devices) and read at ex494/em516. Each concentration was run in triplicate. For antagonism studies, the cells were incubated with the same loading buffer as the agonist assay for 60 min. Then, different concentrations of the tested compounds (20 μL/well) were manually added to each well followed by another 15 min of incubation. […] Each concentration was run in triplicate. The corresponding IC50 value of each compound was calculated by non-linear regression using GraphPad Prism 8.0.1 (GraphPad Software, San Diego, CA)."}, "CCR5": {"molecular_target": "CCR5 (Homo sapiens (Human), UniProt P51681)", "sequence (P51681 whole entry)": "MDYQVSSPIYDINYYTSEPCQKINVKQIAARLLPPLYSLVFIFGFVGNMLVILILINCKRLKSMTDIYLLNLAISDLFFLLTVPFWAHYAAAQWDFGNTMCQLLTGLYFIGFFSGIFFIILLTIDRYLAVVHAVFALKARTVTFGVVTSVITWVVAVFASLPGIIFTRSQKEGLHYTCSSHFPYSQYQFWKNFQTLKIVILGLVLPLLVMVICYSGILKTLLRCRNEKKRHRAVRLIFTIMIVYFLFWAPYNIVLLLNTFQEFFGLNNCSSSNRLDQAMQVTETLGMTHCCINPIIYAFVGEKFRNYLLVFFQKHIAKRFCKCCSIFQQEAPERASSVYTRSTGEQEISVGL", "experiment": "Calcium mobilization assay in HOS-CCR5 cells", "format": "cell-based", "description": "We then conducted the calcium mobilization assay to further test both the agonist and antagonist properties of the newly synthesized compounds in the HOS-CCR5 (stably transfected for the expression of CCR5) cells using our reported protocol, as calcium mobilization is associated with the activation of CCR5. Prior to the assay, the HOS-CCR5 cells were transiently transfected with a Gqi5 to boost calcium signaling levels.\nIn the antagonism assay, these compounds were assessed for their ability to inhibit CCL5-stimulated Ca^2+ mobilization.\nHOS-CCR5 cells were transfected with Gqi5 pcDNA16 using Lipofectamine 2000 (Invitrogen) according to the manufacturer's recommended procedure and maintained in RPMI 1640 supplemented with 10% fetal bovine serum, 100 μg/mL penicillin, 100 μg/mL streptomycin, and 1 mg/mL G418 at 37° C. and 5% C02. 48 h after transfection, a total of 2,500,000 cells were spun down and brought back up in 8 mL of 50:1 HBSS: HEPES assay buffer. Cells were then plated at 25,000 cells per well into a clear bottom, black 96-well plate (Greiner Bio-one) and 50 μL of Fluo4 loading buffer [40 μL of 2 μM Fluo4-AM (Invitrogen), 100 μL of 2.5 mM probenecid, in 5 mL of assay buffer] was added to bring the volume up to 130 μL. After incubating for 45 min, 50 μL of varying concentrations of tested compounds were added and the plate was incubated for an additional 15 min. Plates were then read on a FlexStation3 microplate reader (Molecular Devices) at 494/516 ex/em for a total of 120 s. After 16 s of reading, 20 μL of 200 nM CCL5 (Biosource) in assay buffer, or assay buffer alone, was added to the wells to bring the total volume up to 200 μL. The changes in calcium mobilization were monitored and peak height values were obtained using SoftMaxPro software (Molecular Devices). Non-linear regression curves and IC50 values were generated using GraphPad Prism 8.0.1 (GraphPad Software, San Diego, CA). All experiments were repeated at least three times."}, "HIV-1BaL [1]": {"test_system": "HIV-1BaL", "experiment": "Anti-HIV-1BaL activity (reverse transcriptase activity) in GHOST CCR5 cells", "details": "read-out: Inhibition of HIV-1BaL EC50, RT activity, triplicate", "protocol": "This assay was run in GHOST-CCR5 cells using the CCR5-tropic viral strain HIV-1BaL.\n100 μL of GHOST CCR5 cells at a density of 1×10^4 cells/well in 10% complete DMEM (10% FBS with 1% L-glutamine and 1% Penicillin/Streptomycin) media were plated in a 96-well flat bottom plate and incubated for 24 h at 37° C./5% CO2. Following the incubation, 100 μL of each compound at 6 concentrations were added in triplicate to both efficacy and toxicity plates followed by 100 μL of HIV-1BaL at a pre-determined titer to the plates being evaluated for efficacy and 50 μL of complete DMEM to the plates being evaluated for cytotoxicity. The cultures were incubated for 6 days at 37° C./5% CO2. Following the incubation, 50 μL of cell culture supernatant was removed from the wells of the efficacy plates for subsequent evaluation of virus content by reverse transcriptase activity assay. The toxicity plates being evaluated for cytotoxicity were stained with XTT.\nRT activity (EC50 values) was measured using standard radioactivity incorporation polymerization assay. 1 μL of titrated thymidine triphosphate (TTP) at 1 Ci/mL was used per enzyme reaction. Poly rA and oligo dT were prepared at concentrations of 0.5 mg/mL and 1.7 Units/mL, respectively, from a stock solution which was kept at −20° C. The RT reaction buffer was prepared fresh and consists of 125 μL of 1M EGTA, 125 μL of dH2O, 125 μL of 20% Triton X-100, 50 μL of 1M Tris (pH 7.4), 50 μL of 1M DTT, and 40 μL of 1 M MgCl2. For each reaction, 1 μL of TTP, 4 μL of dH2O, 2.5 μL of rAdT and 2.5 μL of reaction buffer were mixed. 10 μL of this reaction mixture was placed in a round bottom microtiter plate with 15 μL of virus containing supernatant. The plate was incubated at 37° C. in a humidified incubator for 60-90 min. […] The dried filtermat was placed in a plastic sleeve and 4 mL of Opti-Fluor O (Perkin Elmer, catalog #1205-440) scintillation fluid was added to each sleeve. […] TC50 values for the tested compounds were derived by measuring the reduction of the tetrazolium dye XTT (2,3-bis(2-methoxy-4-nitro-5-sulfophenyl)-5-[(phenylamino)carbonyl]-2H-tetrazolium hydroxide). XTT in metabolically active cells is metabolized by the mitochondrial enzyme NADPH oxidase to a soluble formazan product. XTT solution was prepared as a stock of 1 mg/mL in RPMI-1640 without additives. Phenazine methosulfate (PMS) solution was prepared at 0.15 mg/mL in DPBS and stored in the dark at −20° C. XTT/PMS stock was prepared immediately before use by adding 40 μL of PMS per mL of XTT solution. […] The plates were sealed and inverted several times to mix the soluble formazan product and the plate was read at 450 nm (650 nm reference wavelength) with a Molecular Devices SPECTRAMAX® Plus 384 96 well format spectrophotometer."}, "[2]": {"test_system": "HIV-1BaL Env-pseudotyped Luc-expressing virus", "experiment": "HIV-1 infection assay in PHA-stimulated PBMC cells", "format": "cell-based", "details": "PHA-stimulated PBMCs, 100 nM", "description": "Peripheral blood mononuclear cells (PBMCs) include large numbers of CCR5-expressing leukocytes and are susceptible to infection by R5-tropic HIV-1 strains.\nIn a 24-well plate, PHA-stimulated PBMC cells from healthy donors were infected by incubation with the HIV-1BaL.01 env-pseudotyped Luc virus. A concentration of HIV-1 p24 50 pg/106 cells was used, and uninfected cells served as a negative control. […] After approximately 18-20 h, the supernatant was removed and stored at −80° C., cells were rinsed twice with PBS and lysed. The lysate was subsequently tested for the relative Tat protein expression by using a luciferase assay system (Promega). Luciferase activity was measured using a PHERASTAR® FS plate reader (BMG Labtech)."}, "HIV-1BaL [3]": {"test_system": "HIV-1BaL", "experiment": "HIV-1BaL infection assay in MOR-CCR5 co-expressed TZM-b1 cells", "format": "cell-based", "details": "read-out: Inhibition of HIV-1BaL infection EC50", "protocol": "CCR5-expressing TZM-b1 cells co-express an HIV-1 long-terminal repeat (LTR)-firefly luciferase reporter that can be activated by Tat (trans-activator of transcription) in cells expressing HIV. […] To initially determine whether the co-expression of MOR affected HIV-1 entry/expression, OPRM1- or control plasmid-transfected TZM-b1 cells were exposed to varying concentrations of HIV-1BaL and HIV-1 entry was calculated based on LTR-driven luciferase activity.\nHIV-1BaL.01 was kindly donated and expanded in Phytohemagglutinin (PHA)-activated Peripheral Blood Mononuclear Cells (PBMCs). The amount of viral particles was determined by commercial ELISA for p24 capsid antigen (Zeptometrix) and aliquots were stored at −80° C. The TZM-b1, a cell line contained integrated copies of luciferase under control of the HIV-1 long-terminal repeat (LTR), were kindly donated.\nCells were transfected with plasmid containing GFP-tagged human opioid receptor mu 1 gene (OPRM1; Origene) or with the original empty vector also containing GFP (control plasmid; Origene) and selected for 2 weeks with 2 mg/ml G418 (Invivogen) in DMEM (Hyclone) supplemented with 1×MEM Non-essential amino acids (Gibco), 10% heat-inactivated FBS (Hyclone) and 100 U Penicillin-0.1 mg/ml Streptomycin (Sigma). Then, GFP+ cells were sorted out twice by flow cytometry (BDFACSAria model, Becton-Dickinson) and maintained in the conditions mentioned above with 800 μg/ml G418. For the infection, cells were detached from 25 cm2 flasks with 0.25% Trypsin (Sigma), washed by centrifugation (400 g—10 mins) and viable cells determined by Trypan blue (Sigma) exclusion. […] Luciferase activity was evaluated following the addition of 100 μL/well of 2× luciferase substrate containing lysis buffer (BRIGHT-GLO™ Luciferase Substrate, Promega) after 2-3 days of infection.\nLuminescence, reported as relative luminescence units (RLU), was evaluated in PHERASTAR® FS plate reader and results expressed as percentage of inhibition relative to vehicle-treated, infected cells (100% infection)."}, "[4]": {"molecular_target": "Rhesus macaque chemokine CCR5 receptors (Macaca mulatta (Rhesus macaque), UniProt P61813)", "experiment": "In vitro CCR5 radioligand binding assay", "details": "[125I]MIP-1α radioligand; Chem-1 cells; Cheng-Prusoff; mean ± SEM; read-out: CCR5 Radioligand Binding Affinity Ki", "description": "In vitro CCR5 radioligand binding studies. To verify the binding affinity of the bivalent ligands to the CCR5, the competitive radioligand binding assay was conducted in recombinant rhesus macaque CCR5-expressing Chem-1 cells, and macrophage inflammatory protein 1 beta (MIP-1β) was used as a control.\nThe CCR5 competitive radioligand binding assay was conducted following previously reported studies.74, 75 Rhesus macaque chemokine CCR5 receptors expressed in Chem-1 cells are assayed in modified HEPES buffer (50 mM HEPES, 1 mM CaCl2, 5 mM MgCl2, 0.2% BSA, pH 7.4). 3 μg of membrane protein was incubated with 0.10 nM [^125I]MIP-1α in the presence of six concentrations of tested compounds (10 μM, 1 μM, 0.1 μM, 10 nM, 1 nM, and 0.1 nM) for 90 min at 25° C. Non-specific binding is estimated in the presence of 0.1 μM MIP-1β."}},
  "data": [
    {"smiles": "CC(C)c1nnc(CCNC(=O)COCC(=O)NCCCCCCCNC(=O)COCC(=O)NC2CC[C@@]3(O)[C@H]4Cc5ccc(O)c6c5[C@@]3(CCN4CC3CC3)[C@H]2O6)n1C1CC2CCC(C1)N2CC[C@H](NC(=O)C1CCC(F)(F)CC1)c1ccccc1", "note": "(some centres unmarked) [VZMC013]", "values": [
      {"measurement": "MOR agonism in Ca2+ mobilization", "setting": "mouse mu opioid receptor; agonist mode, varying concentrations", "value": "No agonism was observed"},
      {"measurement": "IC50", "setting": "mouse mu opioid receptor; read-out: Inhibition of DAMGO Induced Ca2+ Mobilization IC50, mMOR-CHO transfected with Gqi5, DAMGO 500 nM, mean ± SEM", "value": "0.05 ± 0.00245", "unit": "µM"},
      {"measurement": "IC50", "setting": "CCR5; HOS-CCR5 transfected with Gqi5, mean ± SEM, read-out: Inhibition of CCL5-stimulated Intracellular Ca2+ Mobilization IC50", "value": 0.0575, "unit": "µM"},
      {"measurement": "CCR5 activation (agonism) in Ca2+ mobilization", "setting": "CCR5; agonist mode, range of concentrations tested", "value": "none of these compounds appeared to activate CCR5"},
      {"measurement": "EC50", "setting": "HIV-1BaL [1]", "value": 0.093, "unit": "µM"},
      {"measurement": "Cytotoxicity TC50", "setting": "GHOST CCR5 cells; GHOST CCR5 cells, XTT, triplicate", "value": ">100", "unit": "µM"},
      {"measurement": "cell viability", "setting": "GHOST CCR5 cells; any concentration ≤100 μM, untreated cells = 100%", "value": "~100", "unit": "%"},
      {"measurement": "decrease in HIV expression", "setting": "[2]; co-exposed to DAMGO 10 nM", "value": 69, "unit": "%"},
      {"measurement": "decrease in HIV expression", "setting": "[2]; co-exposed to morphine 10 nM", "value": 55, "unit": "%"},
      {"measurement": "reduction in luminescence (viral entry)", "setting": "[2]; no opioid", "value": 22, "unit": "%"},
      {"measurement": "EC50", "setting": "HIV-1BaL [3]; OPRM1 transfected TZM-b1 cells, morphine 100 μM added", "value": 0.247, "unit": "µM"},
      {"measurement": "EC50", "setting": "HIV-1BaL [3]; OPRM1 transfected TZM-b1 cells, without morphine", "value": 0.368, "unit": "µM"},
      {"measurement": "EC50", "setting": "HIV-1BaL [3]; control plasmid transfected TZM-b1 cells", "value": 0.61, "unit": "µM"},
      {"measurement": "Ki", "setting": "[4]", "value": 0.00329, "unit": "µM"}
    ]}
  ]
}
